Assay results reported in patent US20250179059A1 (The Regents of the University of California, priority 2021, published 2025).
Structures can show the parent of a compound that is named as a salt.

Target: T1, human BRD4 bromodomain II (Homo sapiens, UniProt O60885)
T1 construct: human BRD4 bromodomain II [based on Genbank NM_058243, residues 349-460]; host or cells: E. coli
Experiment: Bromodomain binding assay (AlphaScreen), BRD4 BDII
Conditions: AlphaScreen assay, Table C2; read-out: BRD4 BDII IC50
In short: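 AlphaScreen competition with biotinylated H4 peptide (aa 1-21, K5/K8/K12/K16Ac), using nickel-chelate acceptor and streptavidin donor beads. Targets were His6-BRD4 BDI (44-170) or BDII (349-460), with a 30 min compound preincubation over a 10-point 3-fold series. IC50 was fitted from percentage peptide binding.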

Row | SMILES | IC50
1 | CC(=O)Nc1ccc(-c2cccc(-c3cnn(C4CCNCC4)c3)c2O)cc1 [Example 15, N-(2′-Hydroxy-3′-(1-(piperidin-4-yl)-1H-pyrazol-4-yl)-[1,1′-biphenyl]-4-yl)acetamide] | > 100 nM
2 | CC(=O)Nc1ccc(-c2cccc(-c3cccc(N4CCC(CN)C4)c3)c2O)cc1F (stereo not shown) [Example 203, N-(3″-(3-(aminomethyl)pyrrolidin-1-yl)-3-fluoro-2′-hydroxy-[1,1′:3′,1″-terphenyl]-4-yl)acetamide] | 1 to 10 nM
3 | CC(=O)Nc1ccc(-c2cccc(-c3cccnc3)c2O)cc1F [Example 63, N-(3-Fluoro-2′-hydroxy-3′-(pyridin-3-yl)-[1,1′-biphenyl]-4-yl)acetamide] | 10 to 100 nM
4 | CC(=O)Nc1ccc(-c2cccc(-c3ccc(OC(C)C)cc3)c2O)cc1F [Example 106, N-(3-Fluoro-2′-hydroxy-4″-isopropoxy-[1,1′:3′,1″-terphenyl]-4-yl)acetamide] | > 100 nM
5 | CC(=O)Nc1ccc(-c2cccc(-c3ccc(Cl)c(N4CCNCC4)c3)c2O)cc1F [Example 241, N-(4″-chloro-3-fluoro-2′-hydroxy-3″-(piperazin-1-yl)-[1,1′:3′,1″-terphenyl]-4-yl)acetamide] | 1 to 10 nM
6 | COc1cc(-c2cccc(-c3ccc(NC(C)=O)c(F)c3)c2O)ccc1NC(C)=O [Example 42, N,N′-(3-Fluoro-2′-hydroxy-3″-methoxy-[1,1′:3′,1″-terphenyl]-4,4″-diyl)diacetamide] | 10 to 100 nM
7 | CC(=O)Nc1ccc(-c2cccc(-c3ccc(Oc4ccccc4)cc3)c2O)cc1F [Example 90, N-(3-Fluoro-2′-hydroxy-4″-phenoxy-[1,1′:3′,1″-terphenyl]-4-yl)acetamide] | > 100 nM
8 | CC(=O)Nc1ccc(-c2cccc(-c3cc(N4CCNCC4)no3)c2O)cc1OC1CCCC1 [Example 89, N-(3-(Cyclopentyloxy)-2′-hydroxy-3′-(3-(piperazin-1-yl)isoxazol-5-yl)-[1,1′-biphenyl]-4-yl)acetamide 2,2,2-trifluoroacetate] | 10 to 100 nM
9 | CC(=O)Nc1ccc(-c2cccc(-n3cnc(-c4ccc(F)cc4)c3)c2O)cc1 [Example 18, N-(3′-(4-(4-Fluorophenyl)-1H-imidazol-1-yl)-2′-hydroxy-[1,1′-biphenyl]-4-yl)acetamide] | > 100 nM
10 | CC(=O)Nc1ccc(-c2cccc(-c3ccc(NC(C)=O)c(Oc4ccccc4)c3)c2O)cc1F [Example 53, N,N′-(3-Fluoro-2′-hydroxy-3″-phenoxy-[1,1′:3′,1″-terphenyl]-4,4″-diyl)diacetamide] | > 100 nM
11 | CC(=O)Nc1ccc(-c2cccc(-c3cccc(N4CCC5(CCNC5)C4)c3)c2O)cc1F (stereo not shown) [Example 221, N-(3-fluoro-2′-hydroxy-3″-(2,7-diazaspiro[4.4]nonan-2-yl)-[1,1′:3′,1″-terphenyl]-4-yl)acetamide] | 1 to 10 nM
12 | CC(=O)Nc1c(F)cc(-c2cccc(-c3cc(N4CCNCC4)no3)c2O)cc1Cl [Example 126, N-(3-Chloro-5-fluoro-2′-hydroxy-3′-(3-(piperazin-1-yl)isoxazol-5-yl)-[1,1′-biphenyl]-4-yl)acetamide 2,2,2-trifluoroacetate] | 10 to 100 nM
13 | CC(=O)Nc1ccc(-c2cccc(-c3cccc(N4CCNC[C@H]4C)c3)c2O)cc1F [Example 169, (R)-N-(3-fluoro-2′-hydroxy-3″-(2-methylpiperazin-1-yl)-[1,1′:3′,1″-terphenyl]-4-yl)acetamide] | 1 to 10 nM
14 | CC(=O)Nc1ccc(-c2cccc(-c3ccc4ncccc4c3)c2O)cc1F [Example 120, N-(3-Fluoro-2′-hydroxy-3′-(quinolin-6-yl)-[1,1′-biphenyl]-4-yl)acetamide] | 10 to 100 nM
15 | CC(=O)Nc1ccc(-c2cccc(-c3ccnc(C(N)=O)c3)c2O)cc1F [Example 211, 4-(4′-acetamido-3′-fluoro-2-hydroxy-[1,1′-biphenyl]-3-yl)picolinamide] | > 100 nM
16 | CC(=O)Nc1ccc(-c2cccc(-c3cccc(N4CC5CC4CN5)c3)c2O)cc1F (stereo not shown) [Example 170, N-(3″-(2,5-diazabicyclo[2.2.1]heptan-2-yl)-3-fluoro-2′-hydroxy-[1,1:3′,1″-terphenyl]-4-yl)acetamide] | 10 to 100 nM
17 | CC(=O)Nc1ccc(-c2cccc(-c3cccc(-c4ccc(N)nc4)c3)c2O)cc1F [Example 202, N-(3″-(6-aminopyridin-3-yl)-3-fluoro-2′-hydroxy-[1,1′:3′,1″-terphenyl]-4-yl)acetamide] | > 100 nM
18 | CC(=O)Nc1ccc(-c2cccc(-c3ccc4c(c3)CCN4C(C)=O)c2O)cc1F [Example 47, N-(3′-(1-Acetylindolin-5-yl)-3-fluoro-2′-hydroxy-[1,1′-biphenyl]-4-yl)acetamide] | > 100 nM
19 | CC(=O)Nc1c(F)cc(-c2cccc(-c3cc(N4CCNCC4)no3)c2O)cc1OC1CCC1 [Example 100, N-(3-Cyclobutoxy-5-fluoro-2′-hydroxy-3′-(3-(piperazin-1-yl)isoxazol-5-yl)-[1,1′-biphenyl]-4-yl)acetamide] | 1 to 10 nM
20 | CC(=O)Nc1ccc(-c2cccc(-c3cccc(Oc4ccccc4)c3)c2O)cc1F [Example 91, N-(3-Fluoro-2′-hydroxy-3″-phenoxy-[1,1′:3′,1″-terphenyl]-4-yl)acetamide] | > 100 nM
21 | COc1cc(-c2cccc(-c3cc(Cl)c(N4CCCC4=O)c(Cl)c3)c2O)ccc1NC(C)=O [Example 165, N-(3″,5″-dichloro-2′-hydroxy-3-methoxy-4″-(2-oxopyrrolidin-1-yl)-[1,1′:3′,1″-terphenyl]-4-yl)acetamide] | > 100 nM
22 | CC(=O)Nc1c(Cl)cc(-c2cccc(-c3cc(N4CCNCC4)no3)c2O)cc1Cl [Example 154, N-(3,5-dichloro-2′-hydroxy-3′-(3-(piperazin-1-yl)isoxazol-5-yl)-[1,1′-biphenyl]-4-yl)acetamide] | 10 to 100 nM
23 | CC(=O)Nc1ccc(-c2cccc(-c3ccc(F)cc3)c2O)cc1F [Example 59, N-(3,4″-Difluoro-2′-hydroxy-[1,1′:3′,1″-terphenyl]-4-yl)acetamide] | > 100 nM
24 | CC(=O)Nc1ccc(-c2cccc(-c3cc(N4CCNCC4)no3)c2O)cc1OC1CCC1 [Example 24, N-(3-cyclobutoxy-2′-hydroxy-3′-(3-(piperazin-1-yl)isoxazol-5-yl)-[1,1′-biphenyl]-4-yl)acetamide 2,2,2-trifluoroacetate] | 10 to 100 nM

Next, values leading:

Row | IC50 | SMILES
25 | > 100 nM | CC(=O)Nc1ccc(-c2cccc(-c3cc(N4CCN(S(=O)(=O)c5ccccc5)CC4)no3)c2O)cc1 [Example 58, N-(2′-Hydroxy-3′-(3-(4-(phenylsulfonyl)piperazin-1-yl)isoxazol-5-yl)-[1,1′-biphenyl]-4-yl)acetamide]
26 | > 100 nM | CC(=O)Nc1ccc(-c2cccc(-c3ccc4c(c3)ncn4C)c2O)cc1F [Example 121, N-(3-Fluoro-2′-hydroxy-3′-(1-methyl-1H-benzo[d]imidazol-5-yl)-[1,1′-biphenyl]-4-yl)acetamide]
27 | > 100 nM | CCc1cc(-c2cccc(-c3cc(N4CCNCC4)no3)c2O)ccc1NC(C)=O [Example 22, N-(3-Ethyl-2′-hydroxy-3′-(3-(piperazin-1-yl)isoxazol-5-yl)-[1,1′-biphenyl]-4-yl)acetamide 2,2,2-trifluoroacetate]
28 | > 100 nM | CC(=O)N1CCC(=O)N(C)c2cc(-c3cccc(-c4cc(N5CCNCC5)no4)c3O)ccc21 [Example 38, 5-Acetyl-8-(2-hydroxy-3-(3-(piperazin-1-yl)isoxazol-5-yl)phenyl)-1-methyl-1,3,4,5-tetrahydro-2H-benzo[b][1,4]diazepin-2-one]
29 | 10 to 100 nM | CC(=O)Nc1ccc(-c2cccc(-c3cc(N4CCNCC4)no3)c2O)cc1F [Example 34, N-(3-Fluoro-2′-hydroxy-3′-(3-(piperazin-1-yl)isoxazol-5-yl)-[1,1′-biphenyl]-4-yl)acetamide trifluoroacetate]
30 | > 100 nM | CC(=O)Nc1ccc(-c2cccc(-c3cc(N4CCNCC4)no3)c2O)cc1OC(F)(F)F [Example 25, N-(2′-hydroxy-3′-(3-(piperazin-1-yl)isoxazol-5-yl)-3-(trifluoromethoxy)-[1,1′-biphenyl]-4-yl)acetamide]
31 | > 100 nM | O=C1CCCN1c1c(F)cc(-c2cccc(-c3ccncc3)c2O)cc1F [Example 207, 1-(3,5-difluoro-2′-hydroxy-3′-(pyridin-4-yl)-[1,1′-biphenyl]-4-yl)pyrrolidin-2-one]
32 | > 100 nM | CCNC(=O)c1cccc(-c2cccc(-c3ccc(NC(C)=O)c(F)c3)c2O)c1 [Example 93, 4″-Acetamido-N-ethyl-3″-fluoro-2′-hydroxy-[1,1′:3′,1″-terphenyl]-3-carboxamide]
33 | > 100 nM | CC(=O)Nc1ccc(-c2cccc(-c3cc(N4CCNCC4)no3)c2O)c(F)c1 [Example 30, N-(2-Fluoro-2′-hydroxy-3′-(3-(piperazin-1-yl)isoxazol-5-yl)-[1,1′-biphenyl]-4-yl)acetamide 2,2,2-trifluoroacetate]
34 | 10 to 100 nM | CCOc1cc(-c2cccc(-c3ccc(NC(C)=O)c(F)c3)c2O)ccc1NC(C)=O [Example 52, N,N′-(3-Ethoxy-3″-fluoro-2′-hydroxy-[1,1′:3′,1″-terphenyl]-4,4″-diyl)diacetamide]
35 | > 100 nM | O=C1CCOc2cc(-c3cccc(-c4cc(N5CCNCC5)no4)c3O)ccc2N1 [Example 62, 8-(2-Hydroxy-3-(3-(piperazin-1-yl)isoxazol-5-yl)phenyl)-2,3-dihydrobenzo[b][1,4]oxazepin-4(5H)-one]
36 | > 100 nM | CC(=O)Nc1ccc(-c2cccc(-c3cc(N4CCNCC4)no3)c2O)cn1 [Example 76, N-(5-(2-Hydroxy-3-(3-(piperazin-1-yl)isoxazol-5-yl)phenyl)pyridin-2-yl)acetamide 2,2,2-trifluoroacetate]
37 | 10 to 100 nM | O=C1CCCN1c1ccc(-c2cccc(-c3ccncc3)c2O)cc1Cl [Example 213, 1-(3-Chloro-2′-hydroxy-3′-(pyridin-4-yl)-[1,1′-biphenyl]-4-yl)pyrrolidin-2-one 2,2,2-trifluoroacetate]
